# Test results taken from patent US20230233569A1 (Revolution Medicines, Inc., priority 2020, published 2023).
# How the values were obtained:
# Assay in all cases: Ras-Raf disruption / FRET / MOA assay (BRAF RBD)
# Format in all cases: biochemical
# KRAS G12D = KRAS G12D (Homo sapiens, UniProt P01116+P62937, G12D); conditions: Ras-Raf disruption, with Cyclophilin A; read-out: KRAS G12D FRET data IC50
# Outline: (§1)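 Compound-induced Ras–Cyclophilin A ternary complex disrupting BRAF RBD binding, read as IC50 from reduced TR-FRET ratio relative to DMSO. Final: Ras-GMPPNP 12.5 nM, BRAF RBD 50 nM, Cyclophilin A 25 μM, top compound 30 μM (3-fold, 10 points); 3 h at 25 °C, then 1.5 h with detection antibodies.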
# KRAS G12S = KRAS G12S (Homo sapiens, UniProt P01116+P62937, G12S); conditions: Ras-Raf disruption, with Cyclophilin A; read-out: KRAS G12S FRET data IC50
# Outline: as §1
# KRAS G12V = KRAS G12V (Homo sapiens, UniProt P01116+P62937, G12V); conditions: Ras-Raf disruption, with Cyclophilin A; read-out: KRAS G12V FRET data IC50
# Outline: as §1
# KRAS G13C = KRAS G13C (Homo sapiens, UniProt P01116+P62937, G13C); conditions: Ras-Raf disruption, with Cyclophilin A; read-out: KRAS G13C FRET data IC50
# Outline: as §1
# KRAS G13D = KRAS G13D (Homo sapiens, UniProt P01116+P62937, G13D); conditions: Ras-Raf disruption, with Cyclophilin A; read-out: KRAS G13D FRET data IC50
# Outline: as §1
# KRAS Q61H = KRAS Q61H (Homo sapiens, UniProt P01116+P62937, Q61H); conditions: KRAS Q61H; read-out: KRAS Q61H FRET data IC50
# Outline: as §1
# KRAS WT = KRAS WT (Homo sapiens, UniProt P01116+P62937); conditions: Ras-Raf disruption, with Cyclophilin A; read-out: KRAS WT FRET data IC50
# Outline: as §1
# NRAS G12C = NRAS G12C (Homo sapiens, UniProt P01111+P62937, G12C); conditions: NRAS G12C; read-out: NRAS G12C FRET data IC50
# Outline: as §1
# NRAS Q61K = NRAS Q61K (Homo sapiens, UniProt P01111+P62937, Q61K); conditions: NRAS Q61K; read-out: NRAS Q61K FRET data IC50
# Outline: as §1
# NRAS Q61R = NRAS Q61R (Homo sapiens, UniProt P01111+P62937, Q61R); conditions: NRAS Q61R; read-out: NRAS Q61R FRET data IC50
# Outline: as §1
# NRAS WT = NRAS WT (Homo sapiens, UniProt P01111+P62937); conditions: NRAS WT; read-out: NRAS WT FRET data IC50
# Outline: as §1
# KRAS G12C = KRAS G12C (Homo sapiens, UniProt P01116+P62937, G12C); conditions: Ras-Raf disruption, with Cyclophilin A; read-out: KRAS G12C FRET data IC50
# Outline: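 TR-FRET read-out after 1.5 h with anti-His Eu-W1024 (10 nM) and anti-GST APC (50 nM), following 3 h at 25 °C of compound (top 30 μM, 3-fold, 10 points) with 25 μM Cyclophilin A, 12.5 nM GMPPNP-loaded K-Ras G12C and 50 nM BRAF RBD; IC50 reported.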
# Chain of KRAS G13D (P01116 1-169 isoform P01116-2 G13D limits assumed): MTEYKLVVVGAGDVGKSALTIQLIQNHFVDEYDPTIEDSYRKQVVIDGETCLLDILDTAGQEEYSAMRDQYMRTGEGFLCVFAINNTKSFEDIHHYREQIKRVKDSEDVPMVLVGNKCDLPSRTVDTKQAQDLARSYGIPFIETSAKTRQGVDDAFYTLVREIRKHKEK
# Chain of KRAS G13D (P62937 whole entry): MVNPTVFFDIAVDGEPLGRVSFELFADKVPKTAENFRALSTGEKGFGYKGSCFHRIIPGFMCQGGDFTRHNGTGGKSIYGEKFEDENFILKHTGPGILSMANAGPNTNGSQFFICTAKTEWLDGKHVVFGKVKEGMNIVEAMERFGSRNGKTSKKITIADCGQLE
# Chain of KRAS Q61H (P01116 1-169 isoform P01116-2 Q61H limits assumed): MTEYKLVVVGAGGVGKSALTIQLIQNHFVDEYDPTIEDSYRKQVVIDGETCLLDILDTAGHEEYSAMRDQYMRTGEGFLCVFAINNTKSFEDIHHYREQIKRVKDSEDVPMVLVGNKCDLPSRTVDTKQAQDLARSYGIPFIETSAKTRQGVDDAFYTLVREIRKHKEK
# Chain of KRAS Q61H (P62937 whole entry): as the sequence (P62937 whole entry) above
# Chain of KRAS G12S (P01116 1-169 isoform P01116-2 G12S limits assumed): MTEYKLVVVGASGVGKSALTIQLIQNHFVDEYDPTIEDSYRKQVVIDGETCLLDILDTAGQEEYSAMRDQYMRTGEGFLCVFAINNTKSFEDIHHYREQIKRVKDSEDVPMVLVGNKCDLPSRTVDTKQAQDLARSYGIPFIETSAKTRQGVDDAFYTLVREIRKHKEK
# Chain of KRAS G12S (P62937 whole entry): as the sequence (P62937 whole entry) above
# Chain of KRAS G12V (P01116 1-169 isoform P01116-2 G12V limits assumed): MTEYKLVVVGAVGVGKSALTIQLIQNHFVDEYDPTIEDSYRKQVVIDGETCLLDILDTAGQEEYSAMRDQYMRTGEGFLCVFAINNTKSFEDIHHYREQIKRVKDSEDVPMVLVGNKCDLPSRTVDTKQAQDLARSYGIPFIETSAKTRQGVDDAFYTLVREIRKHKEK
# Chain of KRAS G12V (P62937 whole entry): as the sequence (P62937 whole entry) above
# Chain of NRAS Q61K (P01111 whole entry Q61K): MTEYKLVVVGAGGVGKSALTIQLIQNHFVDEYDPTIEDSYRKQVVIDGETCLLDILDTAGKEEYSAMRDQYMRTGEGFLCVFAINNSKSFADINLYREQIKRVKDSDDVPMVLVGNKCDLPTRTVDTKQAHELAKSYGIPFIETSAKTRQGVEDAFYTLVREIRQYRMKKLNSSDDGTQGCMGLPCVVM
# Chain of NRAS Q61K (P62937 whole entry): as the sequence (P62937 whole entry) above
# Chain of NRAS G12C (P01111 whole entry G12C): as the sequence (P01111 whole entry Q61K) above, with G12C, K61Q counted along it
# Chain of NRAS G12C (P62937 whole entry): as the sequence (P62937 whole entry) above
# Chain of KRAS G12C (P01116 1-169 isoform P01116-2 G12C limits assumed): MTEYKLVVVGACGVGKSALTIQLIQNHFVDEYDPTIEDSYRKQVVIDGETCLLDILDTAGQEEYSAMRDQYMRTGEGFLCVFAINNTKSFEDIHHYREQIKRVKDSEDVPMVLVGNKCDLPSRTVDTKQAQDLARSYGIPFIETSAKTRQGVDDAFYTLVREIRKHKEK
# Chain of KRAS G12C (P62937 whole entry): as the sequence (P62937 whole entry) above
# Chain of KRAS G12D (P01116 1-169 isoform P01116-2 G12D limits assumed): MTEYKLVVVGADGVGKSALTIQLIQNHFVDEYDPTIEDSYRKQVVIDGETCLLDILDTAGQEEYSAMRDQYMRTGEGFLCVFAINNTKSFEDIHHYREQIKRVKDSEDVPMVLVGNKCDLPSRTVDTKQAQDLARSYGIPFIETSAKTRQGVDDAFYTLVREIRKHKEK
# Chain of KRAS G12D (P62937 whole entry): as the sequence (P62937 whole entry) above
# Chain of KRAS G13C (P01116 1-169 isoform P01116-2 G13C limits assumed): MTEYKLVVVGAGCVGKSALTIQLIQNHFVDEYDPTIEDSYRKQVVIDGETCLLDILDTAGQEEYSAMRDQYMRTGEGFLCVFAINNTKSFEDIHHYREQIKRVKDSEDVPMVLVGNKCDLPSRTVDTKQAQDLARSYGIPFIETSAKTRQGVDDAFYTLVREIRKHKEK
# Chain of KRAS G13C (P62937 whole entry): as the sequence (P62937 whole entry) above
# Chain of NRAS WT (P01111 whole entry): as the sequence (P01111 whole entry Q61K) above, with K61Q counted along it
# Chain of NRAS WT (P62937 whole entry): as the sequence (P62937 whole entry) above
# Chain of KRAS WT (P01116 1-169 isoform P01116-2 limits assumed): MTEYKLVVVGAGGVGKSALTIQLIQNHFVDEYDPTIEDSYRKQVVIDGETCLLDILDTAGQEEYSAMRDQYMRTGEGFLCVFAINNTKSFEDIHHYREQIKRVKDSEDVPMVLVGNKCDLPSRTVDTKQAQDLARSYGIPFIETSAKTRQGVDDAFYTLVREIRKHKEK
# Chain of KRAS WT (P62937 whole entry): as the sequence (P62937 whole entry) above
# Chain of NRAS Q61R (P01111 whole entry Q61R): as the sequence (P01111 whole entry Q61K) above, with K61R counted along it
# Chain of NRAS Q61R (P62937 whole entry): as the sequence (P62937 whole entry) above
SMILES,IC50 (KRAS G12D) [nM],IC50 (KRAS G12S) [nM],IC50 (KRAS G12V) [nM],IC50 (KRAS G13C) [nM],IC50 (KRAS G13D) [nM],IC50 (KRAS Q61H) [nM],IC50 (KRAS WT) [nM],IC50 (NRAS G12C) [nM],IC50 (NRAS Q61K) [nM],IC50 (NRAS Q61R) [nM],IC50 (NRAS WT) [nM],IC50 (KRAS G12C) [nM]
"CCn1c(-c2cccnc2[C@H](C)OC)c2c3cc(ccc31)-c1cc(O)cc(c1)C[C@H](NC(=O)[C@H](C(C)C)N(C)C(=O)[C@@H]1CCN(C(=O)[C@H]3CN3)[C@@H]1C)C(=O)N1CCC[C@H](N1)C(=O)OCC(C)(C)C2 (atropisomer, axis not shown) [Example 207]",100 to 1000,10 to 100,10 to 100,10 to 100,100 to 1000,10 to 100,10 to 100,10 to 100,100 to 1000,100 to 1000,10 to 100,10 to 100
"CCn1c(-c2cccnc2[C@H](C)OC)c2c3cc(ccc31)-c1cc(O)cc(c1)C[C@H](NC(=O)[C@H](C(C)C)N(C)C(=O)[C@@H]1CCN(C(=O)[C@@H]3CN3)[C@@H]1C)C(=O)N1CCC[C@H](N1)C(=O)OCC(C)(C)C2 (atropisomer, axis not shown) [Example 208]",100 to 1000,10 to 100,10 to 100,10 to 100,100 to 1000,10 to 100,10 to 100,10 to 100,100 to 1000,100 to 1000,10 to 100,10 to 100
"CCn1c(-c2cccnc2[C@H](C)OC)c2c3cc(ccc31)-c1cc(O)cc(c1)C[C@H](NC(=O)[C@@H](COC1CCN(C(=O)[C@H]3CN3)CC1)C(C)C)C(=O)N1CCC[C@H](N1)C(=O)OCC(C)(C)C2 (atropisomer, axis not shown) [Example 211]",1000 to 10000,1000 to 10000,1000 to 10000,100 to 1000,1000 to 10000,100 to 1000,100 to 1000,10 to 100,1000 to 10000,1000 to 10000,100 to 1000,10 to 100
"CCn1c(-c2cccnc2[C@H](C)OC)c2c3cc(ccc31)-c1cc(O)cc(c1)C[C@H](NC(=O)[C@H](C(C)C)N(C)C(=O)c1nc(NC(=O)[C@H]3CN3)cs1)C(=O)N1CCC[C@H](N1)C(=O)OCC(C)(C)C2 (atropisomer, axis not shown) [Example 212]",1000 to 10000,100 to 1000,100 to 1000,10 to 100,100 to 1000,10 to 100,100 to 1000,100 to 1000,100 to 1000,100 to 1000,100 to 1000,100 to 1000
"CCn1c(-c2cccnc2[C@H](C)OC)c2c3cc(ccc31)-c1csc(n1)C[C@H](NC(=O)[C@H](C(C)C)N(C)C(=O)N(C)CCN(C)C(=O)[C@H]1CN1)C(=O)N1CCC[C@H](N1)C(=O)OCC(C)(C)C2 (atropisomer, axis not shown) [Example 216]",100 to 1000,100 to 1000,100 to 1000,100 to 1000,100 to 1000,10 to 100,100 to 1000,10 to 100,10 to 100,100 to 1000,100 to 1000,10 to 100
"CCn1c(-c2cccnc2[C@H](C)OC)c2c3cc(ccc31)-c1csc(n1)C[C@H](NC(=O)[C@H](C(C)C)N(C)C(=O)N(C)CCN(C)C(=O)[C@@H]1CN1)C(=O)N1CCC[C@H](N1)C(=O)OCC(C)(C)C2 (atropisomer, axis not shown) [Example 217]",100 to 1000,100 to 1000,100 to 1000,100 to 1000,100 to 1000,10 to 100,100 to 1000,10 to 100,10 to 100,100 to 1000,10 to 100,10 to 100
"CCn1c(-c2cccnc2[C@H](C)OC)c2c3cc(ccc31)-c1csc(n1)C[C@H](NC(=O)[C@H](C(C)C)N(C)C(=O)N1CC(N(C)C(=O)[C@@H]3CN3)C1)C(=O)N1CCC[C@H](N1)C(=O)OCC(C)(C)C2 (atropisomer, axis not shown) [Example 219]",1000 to 10000,100 to 1000,100 to 1000,100 to 1000,100 to 1000,100 to 1000,100 to 1000,100 to 1000,10 to 100,100 to 1000,100 to 1000,100 to 1000
"CCn1c(-c2cccnc2[C@H](C)OC)c2c3cc(ccc31)-c1csc(n1)C[C@H](NC(=O)[C@H](C(C)C)N(C)C(=O)N1CCCN(C(=O)[C@H]3CN3)CC1)C(=O)N1CCC[C@H](N1)C(=O)OCC(C)(C)C2 (atropisomer, axis not shown) [Example 222]",100 to 1000,10 to 100,100 to 1000,100 to 1000,100 to 1000,10 to 100,10 to 100,10 to 100,10 to 100,10 to 100,10 to 100,10 to 100
"CCn1c(-c2cccnc2[C@H](C)OC)c2c3cc(ccc31)-c1csc(n1)C[C@H](NC(=O)[C@H](C(C)C)N(C)C(=O)N1CCCN(C(=O)[C@@H]3CN3)CC1)C(=O)N1CCC[C@H](N1)C(=O)OCC(C)(C)C2 (atropisomer, axis not shown) [Example 223]",100 to 1000,100 to 1000,100 to 1000,100 to 1000,100 to 1000,10 to 100,10 to 100,10 to 100,10 to 100,10 to 100,10 to 100,10 to 100
"CCn1c(-c2cccnc2[C@H](C)OC)c2c3cc(ccc31)-c1csc(n1)C[C@H](NC(=O)[C@H](C(C)C)N(C)C(=O)N1CC(CN(C)C(=O)[C@H]3CN3)C1)C(=O)N1CCC[C@H](N1)C(=O)OCC(C)(C)C2 (atropisomer, axis not shown) [Example 224]",100 to 1000,100 to 1000,100 to 1000,100 to 1000,100 to 1000,10 to 100,100 to 1000,10 to 100,10 to 100,10 to 100,10 to 100,10 to 100
"CCn1c(-c2cccnc2[C@H](C)OC)c2c3cc(ccc31)-c1csc(n1)C[C@H](NC(=O)[C@H](C(C)C)N(C)C(=O)N1CC(CN(C)C(=O)[C@@H]3CN3)C1)C(=O)N1CCC[C@H](N1)C(=O)OCC(C)(C)C2 (atropisomer, axis not shown) [Example 225]",100 to 1000,100 to 1000,100 to 1000,100 to 1000,100 to 1000,10 to 100,100 to 1000,10 to 100,10 to 100,100 to 1000,10 to 100,10 to 100
"CCn1c(-c2cccnc2[C@H](C)OC)c2c3cc(ccc31)-c1csc(n1)C[C@H](NC(=O)[C@H](C(C)C)N(C)C(=O)N1CC[C@@H](N(C)C(=O)[C@H]3CN3)C1)C(=O)N1CCC[C@H](N1)C(=O)OCC(C)(C)C2 (atropisomer, axis not shown) [Example 226]",1000 to 10000,100 to 1000,100 to 1000,100 to 1000,100 to 1000,100 to 1000,100 to 1000,100 to 1000,100 to 1000,100 to 1000,100 to 1000,100 to 1000
"CCn1c(-c2cccnc2[C@H](C)OC)c2c3cc(ccc31)-c1csc(n1)C[C@H](NC(=O)[C@H](C(C)C)N(C)C(=O)N1CC[C@@H](N(C)C(=O)[C@@H]3CN3)C1)C(=O)N1CCC[C@H](N1)C(=O)OCC(C)(C)C2 (atropisomer, axis not shown) [Example 227]",100 to 1000,100 to 1000,100 to 1000,100 to 1000,100 to 1000,10 to 100,100 to 1000,10 to 100,10 to 100,100 to 1000,100 to 1000,100 to 1000
